Ten molecules from US20070088043A1, “Novel HDAC inhibitors” (ORCHID RESEARCH LABORATORIES LIMITED., priority 2005, published 2007) can be followed below.

Experiment [1] deals with MDAMB231/U251. Put plainly: Anti-cancer screen (MTT), MDAMB231/U251. Format: cell-based. The note with it: MDAMB231/U251 cells, 48 hours; for GI50: concentration to decrease % growth by 50%; for IC100: concentration to decrease % growth by 100%, read-out: MDAMB231/U251 TGI; for LC50: concentration to decrease % growth by 150%. Here is the method:
(§1) Experimental drugs are screened for anti-cancer activity in three cell lines for their GI50, TGI and LC50 values (using five concentrations for each compound). The cell lines are maintained in DMEM containing 10% fetal bovine serum. 96 well micro titer plates are inoculated with cells in 100 μL for 24 h at 37° C., 5% CO2, 95% air and 100% relative humidity. 5000 HCT 116 cells/well, 5000 NCIH 460 cells/well and 5000 U251 cells/well are plated. A separate plate with these cell lines is also inoculated to determine cell viability before the addition of the compounds (T0).
(§2) Following 24-hour incubation, experimental drugs are added to the 96 well plates. Each plate contains one of the above cell lines and the following in triplicate: five different concentrations (0.01, 0.1, 1, 10 and 100 μM) of four different compounds, appropriate dilutions of a cytotoxic standard and control (untreated) wells. Compounds are dissolved in DMSO to make 20 mM stock solutions on the day of drug addition and frozen at −20° C. Serial dilutions of these 20 mM stock solutions are made in complete growth medium such that 100 μL of these drug solutions in medium, of final concentrations equaling 0.01, 0.1, 1, 10 and 100 μM can be added to the cells in triplicate. Standard drugs whose anti-cancer activity has been well documented and which are regularly used are doxorubicin and SAHA.
(§3) For To measurement, 24 hours after seeding the cells, 10 μL of 3-(4,5-Dimethyl-2-thiazolyl)-2,5-diphenyl-2H-tetrazolium (MTT) solution per well is added and incubation carried out for 3 hours at 37° C., 5% CO2, 95% air and 100% relative humidity, protected from light. Cells incubated with compounds for 48 hours are treated similarly except with the addition of 20 μL MTT solution per well and a subsequent incubation under the same conditions. After 3 hours of MTT incubation, well contents are aspirated carefully followed by addition of 150 μL DMSO per well. Plates are agitated to ensure solution of the formazan crystals in DMSO and absorbance read at 570 nm. […]

For experiment [2], the system named is HDAC (Mouse Liver Extract). The experiment is described as follows: Histone Deacetylase (HDAC) Inhibition Assay using Boc-Lys (Ac)-AMC Substrate. The experiment is classed as biochemical. The note with it: mouse liver enzyme, NA = No Activity; for HDAC Inhibition 1 μM / HDAC Inhibition 10 μM: in % (unit assumed). The text has this: HDAC Activitv Screening: Histone Deacetylase (HDAC) Inhibition Assay using Boc-Lys (Ac)-AMC Substrate:
Inhibition of HDAC has been implicated to modulate transcription and to induce apoptosis or differentiation in cancer cells. The fluorometric assay provides a fast and fluorescence based method that eliminates radioactivity, extractions or chromatography, as used in traditional assays. The assay based on two steps. First, the HDAC fluorometric substrate, which comprises an acetylated lysine side chain, is incubated with a sample containing HDAC activity (Mouse Liver Extract). Deacetylation of the substrate sensitizes the substrate, in the second step; treatment with the Trypsin stop solution produces a fluorophore that can be easily analyzed using fluorescence plate reader.
Assay was done in 96 well black microplate and total volume of the assay is 100 ul. Mouse liver enzyme is diluted 1:6 with HDAC buffer. Enzyme cocktail made of 10 ul of diluted enzyme and 30 ul of HDAC buffer. 40 ul of enzyme cocktail dispensed into each well. 10 ul of different concentrations of inhibitor added in to each well, except enzyme control well. Preincubated the plate at 30° C. for 5 minutes. The HDAC reaction is started by adding 50 ul of HDAC substrate (Boc-Lys (Ac)-AMC Substrate) solution. Incubated the plate at 30° C. for 30 minutes. Adding 100 ul of Trypsin stop solution stops the reaction. The plate is incubated again at 30° C. for 20-30 minutes. The release of AMC is monitored by measuring the fluorescence at excitation wavelength of 365 or 360 nm and emission wavelength of 440 or 460 nm. Buffer and substrate alone kept for blank subtraction. (Dennis Wegener et al, Anal. Biochem, 321, 2003, 202-208).

In experiment [3] the test system is HCT 116 cells. The experiment is described as follows: Anti-cancer screen (MTT), HCT116. The experiment is classed as cell-based. The note with it: Homo sapiens, HCT-116, HCT116 cells, 48 hours, MTT; for GI50: concentration to decrease % growth by 50%; for IC100: concentration to decrease % growth by 100%, read-out: HCT116 TGI; for LC50: concentration to decrease % growth by 150%. As for the experimental part: as §1, §2, §3

Experiment [4] concerns NCIH 460 cells. Put plainly: Anti-cancer screen (MTT), NCIH460. The experiment is classed as cell-based. The note with it: Homo sapiens, NCI-H460, NCIH460 cells, 48 hours, MTT; for GI50: concentration to decrease % growth by 50%; for IC100: concentration to decrease % growth by 100%, read-out: NCIH460 TGI; for LC50: concentration to decrease % growth by 150%. Here is the method:
as §1, §2, §3

The test system of experiment [5] is NCIH460, HCT116, MDAMB231/U251. The experiment is described as follows: Anti-cancer screen, mean GI50 over the cell lines. The experiment is classed as cell-based. The note with it: in µM. As for the experimental part: as §1, §2, §3

Consider `CC(=O)SCCCCCC(=O)N1CCN(CC(=O)N2CCOCC2)CC1` [Example 19, 2-[4-(6-Thioacetylhexanoyl)piperazin-1-yl]-N-(morpholine)acetamide], for which, in experiment [1], the GI50 is 57 µM, the IC100 is over 100 µM and the LC50 is over 100 µM. In experiment [2], the “HDAC Inhibition 1 μM” value was 18.82 and the “HDAC Inhibition 10 μM” value is listed as 51.25. Moreover, in experiment [3], the GI50 is over 100 µM, the IC100 is over 100 µM and the LC50 is over 100 µM. Moreover, in experiment [4], the GI50 is over 100 µM, the IC100 was over 100 µM and the LC50 is over 100 µM. Further, in experiment [5], the “Mean GI50” value is reported as over 100.
`COc1cc(CNC(=O)CN2CCN(C(=O)CCCCSC(C)=O)CC2)cc(OC)c1` [Example 20]: in experiment [1], the GI50 was over 100 µM, the IC100 was over 100 µM and the LC50 is over 100 µM. In experiment [2], the “HDAC Inhibition 1 μM” value is listed as 26.4 and the “HDAC Inhibition 10 μM” value is recorded as 55.4. In addition, in experiment [3], the GI50 is over 100 µM, the IC100 was over 100 µM and the LC50 was over 100 µM. Besides, in experiment [4], the GI50 was over 100 µM, the IC100 was over 100 µM and the LC50 is over 100 µM. In experiment [5], the “Mean GI50” value is on record as over 100.
For `COc1cccc2sc(NC(=O)CN3CCN(C(=O)CCCCCSC(C)=O)CC3)nc12` [Example 21, 2-[4-(6-Thioacetylhexanoyl)piperazin-1-yl]-N-(4-methoxy-1,3-benzothiazol-2-yl)acetamide], in experiment [1], growth was halved (GI50) at 38 µM, the IC100 was over 100 µM and the LC50 is over 100 µM. In addition, in experiment [2], the “HDAC Inhibition 1 μM” value is recorded as 82.9, the “HDAC Inhibition 10 μM” value turned out to be 96.2 and the IC50 stood at 570 nM. Besides, in experiment [3], the GI50 is 52 µM, the IC100 is over 100 µM and the 50% lethal concentration (LC50) was over 100 µM. Moreover, in experiment [4], the GI50 is 93 µM, the IC100 is over 100 µM and the LC50 is over 100 µM. Besides, the “Mean GI50” value in experiment [5] was 61.
Turning to `CC(=O)SCCCCCC(=O)N1CCN(CC(=O)Nc2cccc(F)c2)CC1` [Example 22, 2-[4-(6-Thioacetylhexanoyl)piperazin-1-yl]-N-(6-fluorophenyl-2-yl)acetamide], in experiment [1], the GI50 was over 100 µM, the IC100 is over 100 µM and the LC50 was over 100 µM. Moreover, in experiment [2], the “HDAC Inhibition 1 μM” value was 6.0 and the “HDAC Inhibition 10 μM” value is listed as 50.0. Also, in experiment [3], it took 67 µM to inhibit growth by half (GI50), the IC100 is over 100 µM and the LC50 is over 100 µM. Further, in experiment [4], the GI50 is over 100 µM, the IC100 is over 100 µM and the LC50 is over 100 µM. In experiment [5], the “Mean GI50” value is over 100.
Consider `CC(=O)SCCCCC(=O)N1CCN(CC(=O)Nc2cccc(F)c2)CC1` [Example 23, 2-[4-(5-Thioacetylpentanoyl)piperazin-1-yl]-N-(6-fluorophenyl-2-yl)acetamide], for which, in experiment [1], halving of growth (GI50) required 38 µM, the IC100 came to 78 µM and the LC50 is over 100 µM. In experiment [2], the “HDAC Inhibition 1 μM” value was found to be 47.2, the “HDAC Inhibition 10 μM” value was 81.7 and the IC50 worked out at 4800 nM. In experiment [3], the GI50 was determined as 63 µM, the IC100 was over 100 µM and the LC50 was over 100 µM. Besides, in experiment [4], the 50% growth inhibitory concentration (GI50) was over 100 µM, the IC100 is over 100 µM and the LC50 is over 100 µM. The “Mean GI50” value in experiment [5] was over 100.
On to `O=C(CN1CCN(C(=O)CCCCCS)CC1)Nc1nc2ccccc2s1` [Example 24, N-1,3-benzothiazol-2-yl-2-[4-(6-mercaptohexanoyl)piperazin-1-yl]acetamide], for which, in experiment [1], the GI50 is 5 µM, the IC100 stood at 66 µM and the LC50 is over 100 µM. Further, in experiment [2], the “HDAC Inhibition 1 μM” value was found to be 4 and the “HDAC Inhibition 10 μM” value is on record as 27.4. In experiment [3], the GI50 is 0.7 µM, the IC100 was over 100 µM and the LC50 was over 100 µM. For the same molecule, in experiment [4], growth was halved (GI50) at 60 µM, the IC100 was over 100 µM and the LC50 is over 100 µM. Besides, the “Mean GI50” value in experiment [5] is 21.90.
Regarding `Cc1ccc2nc(NC(=O)CN3CCN(C(=O)CCCCCS)CC3)sc2c1` [Example 25, N-6-methyl-1,3-benzothiazol-2-yl-2-[4-(6-mercaptohexanoyl)piperazin-1-yl]acetamide], in experiment [1], the GI50 turned out to be 0.07 µM, the IC100 is 0.8 µM and the LC50 was over 100 µM. Also, in experiment [2], the “HDAC Inhibition 10 μM” value worked out at 3.6. For the same molecule, in experiment [3], the GI50 stood at 3.5 µM, the IC100 was over 100 µM and the LC50 was over 100 µM. For the same molecule, in experiment [4], the 50% growth inhibitory concentration (GI50) is 9 µM, the IC100 was over 100 µM and the LC50 is over 100 µM. For the same molecule, the “Mean GI50” value in experiment [5] is recorded as 4.2.
In the case of `O=C(CN1CCN(C(=O)CCCCCNO)CC1)Nc1nc2ccccc2s1` [Example 26], in experiment [1], the GI50 was determined as 27 µM, the IC100 is 85 µM and the LC50 was over 100 µM. Also, the “HDAC Inhibition 10 μM” value in experiment [2] is on record as 4.5. In experiment [3], the GI50 was determined as 8.6 µM, the IC100 was over 100 µM and the LC50 is over 100 µM. For the same molecule, in experiment [4], the 50% growth inhibitory concentration (GI50) was 9.5 µM, the IC100 came out at 92 µM and the LC50 was over 100 µM. Also, the “Mean GI50” value in experiment [5] came to 15.
Regarding `O=C(CCCCCCC(=O)N1CCN(CC(=O)Nc2nc3ccccc3s2)CC1)NO` [Example 29, 8-{4-[2-(1,3-Benzothiazol-2-ylamino)-2-oxoethyl]piperazin-1-yl}-N-hydroxy-8-oxo octanamide], in experiment [1], the GI50 was determined as 11 µM, the IC100 stood at 55 µM and the LC50 worked out at 95 µM. In experiment [2], the “HDAC Inhibition 1 μM” value is listed as 61.41, the “HDAC Inhibition 10 μM” value turned out to be 97.00 and it took 760 nM to reach half-maximal inhibition (IC50). Moreover, in experiment [3], the GI50 was 30 µM, the IC100 is over 100 µM and the LC50 is over 100 µM. Also, in experiment [4], the GI50 is 0.8 µM, the IC100 was 93 µM and the LC50 was over 100 µM. Further, the “Mean GI50” value in experiment [5] came out at 13.9.
For `COC(=O)[C@H](CO)NC(=O)CCCCCCC(=O)N1CCN(CC(=O)Nc2nc3ccc(C)cc3s2)CC1` [Example 30], in experiment [1], the GI50 was found to be 35 µM, the IC100 worked out at 56 µM and the LC50 is 82 µM. In addition, the “HDAC Inhibition 10 μM” value in experiment [2] is recorded as 4.65. In experiment [3], the GI50 was 8 µM, the IC100 came to 51 µM and the LC50 came to 79 µM. For the same molecule, in experiment [4], the GI50 was determined as 42.5 µM, the IC100 is 80.5 µM and the median lethal concentration (LC50) was over 100 µM. Further, in experiment [5], the “Mean GI50” value came to 28.50.
